Reference: patent US11324725B2, “Compositions and methods for the inhibition of pruritus” (The United States of America, as represented by the …, priority 2017, dated 2022)
Entries after “also recorded” stand apart in the source; their conditions may differ. Where a SMILES comes first, the peptide text is derived from it. Bridges are numbered along the chain shown (N, C = ends). [ ]: non-standard residue; d: D form. dTic = O=C(O)[C@H]1Cc2ccccc2CN1; Cha = N[C@@H](CC1CCCCC1)C(=O)O

Columns and labels:
hNpr1 = target: T1, hNpr1 (Homo sapiens, UniProt P16066); test: GloSensor assay in 96-well format, HEK-hNpr1-cGMP-sensor cells; assay type: cell-based; conditions: 5 μM antagonist, increasing hNppa; GloSensor and membrane cyclase assays (FIGS. 5B-C)
T1 sequence (P16066 33-1061): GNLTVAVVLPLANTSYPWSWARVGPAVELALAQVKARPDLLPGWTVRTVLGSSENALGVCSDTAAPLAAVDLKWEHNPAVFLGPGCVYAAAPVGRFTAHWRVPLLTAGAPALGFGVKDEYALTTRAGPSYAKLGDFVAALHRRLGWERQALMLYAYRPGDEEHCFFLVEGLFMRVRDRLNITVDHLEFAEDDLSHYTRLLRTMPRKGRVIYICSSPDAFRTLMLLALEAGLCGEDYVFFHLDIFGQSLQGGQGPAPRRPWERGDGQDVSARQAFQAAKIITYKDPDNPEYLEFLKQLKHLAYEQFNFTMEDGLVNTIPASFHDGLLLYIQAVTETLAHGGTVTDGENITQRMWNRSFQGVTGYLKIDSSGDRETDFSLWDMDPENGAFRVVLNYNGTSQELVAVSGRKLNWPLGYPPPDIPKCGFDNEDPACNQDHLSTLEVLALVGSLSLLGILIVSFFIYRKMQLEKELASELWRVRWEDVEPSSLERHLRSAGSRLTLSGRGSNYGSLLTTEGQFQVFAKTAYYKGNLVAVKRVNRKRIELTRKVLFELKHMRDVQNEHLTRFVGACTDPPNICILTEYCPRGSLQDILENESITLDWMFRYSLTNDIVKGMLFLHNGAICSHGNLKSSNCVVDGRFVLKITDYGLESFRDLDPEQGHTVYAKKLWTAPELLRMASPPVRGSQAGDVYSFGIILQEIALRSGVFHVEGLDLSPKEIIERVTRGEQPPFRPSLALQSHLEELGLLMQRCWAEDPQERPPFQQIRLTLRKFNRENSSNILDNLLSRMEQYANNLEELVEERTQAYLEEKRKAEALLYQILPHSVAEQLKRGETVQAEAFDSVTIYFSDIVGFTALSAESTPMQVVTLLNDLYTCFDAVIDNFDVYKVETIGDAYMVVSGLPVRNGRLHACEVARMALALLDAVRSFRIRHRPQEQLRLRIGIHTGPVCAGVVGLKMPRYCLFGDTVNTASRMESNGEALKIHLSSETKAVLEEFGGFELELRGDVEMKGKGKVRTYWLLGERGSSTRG
Method: (§1) Before the measurement (24 hours in advance), 3×10^4 cells were seeded into white 96-well plates (PerkinElmer, Waltham, Mass.), coated with 0.1% poly(D-lysine), and assays conducted as recommended by the manufacturer (Promega). Medium was aspirated and cells were loaded for two hours at room temperature with 2% GoSensor™ reagent diluted in CO2-independent media (ThermoFisher) supplemented with 2 mM L-glutamine and 10% FBS (assay medium). Luminescence was measured on a BioTek Synergy™ NEO (Winooski, Vt.) plate reader at room temperature. After a baseline measurement of 3-5 minutes, assay medium as a control or assay medium with agonist was manually added, and luminescence was measured for 30 minutes at ˜ 1/60 Hz. For compounds tested for Npr1 and Npr2 inhibition, the compounds were added after baseline measurements, and luminescence was read for 5 minutes before addition of agonist. Luminescence was then normalized to baseline measurements and plotted against the time. Ligand-induced changes of cGMP production were quantified by determining the area under the curve. To determine efficacy and potency of agonists, ligand-induced changes were normalized to medium only addition and plotted against the ligand concentration. […] To quantify […] of compounds, compound-induced changes of agonist-induced cGMP production were normalized to vehicle controls, plotted against compound concentration, and fit with a four-parameter logistic regression. Effects of A-71915 on basal mNpr1 activity were fitted with a bell-shaped regression (equation indicated below).
Additional screens of the fifteen candidates corroborated hNpr1 inhibition. In particular, HEK-hNpr1-cGMP-sensor cells were seeded in 96-wells and stimulated with 60 pM hNppa 5 minutes after addition of candidate compounds or A-71915 and luminescence was measured for 30 minutes. Inhibitors were titrated to calculate apparent potency (IC50) and efficacy (Imax) of inhibition of hNppa-induced cGMP production.

mice = conditions: reported; cited from earlier work
mNpr1 = target: T2, mNpr1 (Mus musculus, UniProt P18293); test: GloSensor assay, HEK-293 cells transiently expressing mNpr1 and pGS-40F; assay type: cell-based; conditions: no agonist
T2 construct: host or cells: HEK-293, transient co-transfection with pGS-40F
T2 sequence (P18293 29-1057): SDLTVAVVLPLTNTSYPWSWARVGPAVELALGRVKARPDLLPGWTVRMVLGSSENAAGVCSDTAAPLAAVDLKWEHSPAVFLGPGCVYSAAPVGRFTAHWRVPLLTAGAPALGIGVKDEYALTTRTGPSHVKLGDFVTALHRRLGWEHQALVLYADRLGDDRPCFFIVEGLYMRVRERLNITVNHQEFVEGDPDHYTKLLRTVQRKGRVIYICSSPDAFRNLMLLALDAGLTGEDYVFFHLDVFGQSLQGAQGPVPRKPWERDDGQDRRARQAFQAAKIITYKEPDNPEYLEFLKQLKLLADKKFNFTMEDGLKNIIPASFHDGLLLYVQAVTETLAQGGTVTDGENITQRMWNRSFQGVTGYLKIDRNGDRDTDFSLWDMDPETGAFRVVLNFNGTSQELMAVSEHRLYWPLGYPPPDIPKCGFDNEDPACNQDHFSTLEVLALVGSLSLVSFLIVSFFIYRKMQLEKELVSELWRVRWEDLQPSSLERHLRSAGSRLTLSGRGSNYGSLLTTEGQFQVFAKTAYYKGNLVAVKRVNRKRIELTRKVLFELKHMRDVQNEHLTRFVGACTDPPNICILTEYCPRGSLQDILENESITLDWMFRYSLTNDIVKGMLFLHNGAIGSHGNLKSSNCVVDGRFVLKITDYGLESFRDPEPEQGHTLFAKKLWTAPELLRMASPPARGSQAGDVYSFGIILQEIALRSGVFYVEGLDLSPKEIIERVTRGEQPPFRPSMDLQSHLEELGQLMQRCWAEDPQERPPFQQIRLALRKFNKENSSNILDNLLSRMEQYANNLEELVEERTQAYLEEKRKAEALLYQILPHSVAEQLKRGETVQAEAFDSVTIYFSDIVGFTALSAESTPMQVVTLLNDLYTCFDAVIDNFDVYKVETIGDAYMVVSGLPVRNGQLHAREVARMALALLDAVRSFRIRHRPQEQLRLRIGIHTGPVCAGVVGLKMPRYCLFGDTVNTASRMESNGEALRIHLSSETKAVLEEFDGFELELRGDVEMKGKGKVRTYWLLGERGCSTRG
Method: HEK-293 cells (American Type Culture Collection “ATTC,” Manassas, Va.) were cultured in DMEM/F12 supplemented with 2 mM L-glutamine, 10% FBS, 100 U/ml penicillin, and 100 μg/ml streptomycin. For transient expression, 8×10^5 cells were seeded in 6-wells, cultured for 24 hours, and then transfected using TransIT®-293 (Mirus, Madison, Wis.) according to the manufacturer's instructions. After transfection (48 hours), cells were used to measure intracellular cGMP production. HEK-293 cell clones stably expressing pGloSensor™-40F alone (HEK-cGMP-sensor cells) or in addition, human Npr1 (“hNpr1”) (HEK-hNpr1-cGMP-sensor cells) or human Npr2 (HEK-hNpr2-cGMP-sensor cells) were generated by co-transfection with pEAK8-GFP and selection with 1 μg/ml puromycin. Stable expression of transgenes was verified by measuring ligand-induced cGMP production with the cGMP biosensor.
as §1
Because the Npr1 receptor is a ligand-dependent guanylate cyclase, measuring agonist-induced changes in intracellular cGMP levels was used to examine inhibition of Npr1. To measure the production of cGMP by Npr1, a circular permutated Firefly luciferase molecule which was functionally linked to the cGMP binding domain of human PDE5 (GloSensor™ technology pGS-40F) was used, as described in Example 1. This reporter molecule together with a luciferase substrate (GoSensor™ reagent) and a sensitive method for detection of luciferase activity (emitted light) permitted real-time measurement of cGMP levels in live cells (FIG. 1A). The cGMP sensor was expressed in HEK293 cells and luciferase activity after stimulation with the NO-donor sodium nitroprusside (SNP), which activates ubiquitously expressed soluble guanylate cyclases, was examined. […] Next, mNpr1 and the cGMP sensor were transiently expressed in HEK293 cells and agonist dependent receptor activation was examined. […] Next, the effects of A-71915 on mNpr1 were tested.
For Table 6, HEK-293 cells transiently expressing mNpr1 and pGS-40F were stimulated with 1 nM mNppb 5 minutes after addition of candidate compounds or A-71915 and luminescence was measured for 30 minutes. Inhibitors were titrated to calculate apparent IC50 values, as described in methods.

Compound | Effect on hNppa concentration-response at fixed antagonist concentration (hNpr1) | Block of acute itch responses elicited by intradermal pruritogens (mice) | Effect on basal mNpr1 activity in the absence of natriuretic peptides (mNpr1)
1-cyclohexyl-3-(cyclopropylmethyl)-N-((3-methylisoxazol-5-yl)methyl)-2-oxo-2,3-dihydro-1H-benzo[d]imidazole-5-carboxamide [JS-11] | reduced maximal responses even at extremely high hNppa concentrations | – | –
CC[C@H](C)[C@@H]1NC(=O)[C@H](CCCNC(=N)N)NC(=O)CNC(=O)CNC(=O)[C@H](CC2CCCCC2)NC(=O)[C@@H](NC(=O)[C@@H](N)CCCNC(=N)N)CSSC[C@@H](C(N)=O)NC(=O)[C@H](CCCNC(=N)N)NC(=O)[C@H]2Cc3ccccc3CN2C(=O)[C@H]([C@@H](C)CC)NC(=O)[C@H](CCCNC(=N)N)NC(=O)[C@H](CC(=O)O)NC1=O [Compound A-71915, reference compound] (H-RC[Cha]GGRIDRI[dTic]RC-NH2; disulfide 2-13; N-terminus and C-terminus assumed) | right-shift in hNppA potency without any effect on maximal efficacy | does not block acute itch responses | partial agonist; also recorded: directly stimulates basal mNpr1 activity
